Results on 11 compounds are retold here after ChEMBL document CHEMBL1201862, “PubChem BioAssay data set” (2004).

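Grown in 96-well plates, cells were treated for 48 hours with each compound at five concentrations. Insufficient inhibition: endpoint recorded as highest concentration tested. Here, GI50 denotes the concentration required for 50% inhibition of growth.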 Activity calls are given as the source filed them. Cut-off read from the data, not from the text of the source: active = GI50 up to about 1.1 µM and inactive = higher.

Some test systems named below: NCI-H23; Hs-578T; SN12C; PC-3; HCT-116; SF-539; MOLT-4; CCRF-CEM; OVCAR-5; IGROV-1; BT-549; A549; COLO 205; K562; NCI/ADR-RES; Malme-3M; ACHN; TK-10; UO-31.
Assay in all cases: NCI-60 cell line screen, 48 h

Regarding `C[C@H]1CCCCC[C@@H]2CC(=O)CC2C(=O)CCC(=O)O1` (some centres undefined), the GI50 with NCI-H23, in the assay on Hs-578T, in the assay on SN12C, with PC-3, with HCT-116 and in the assay on SF-539 was > 100 µM (inactive) each time. Moreover, the GI50 in the assay on MOLT-4, in the assay with CCRF-CEM, in the assay on OVCAR-5, with IGROV-1, in the assay on BT-549 and in the assay with A549 was > 100 µM (inactive) each time. Further, the GI50 in the assay with COLO 205 was > 100 µM (inactive); in the assay with K562, > 100 µM (inactive); with NCI/ADR-RES it was 52.6 µM (inactive); with Malme-3M, > 100 µM (inactive); in the assay with ACHN, > 100 µM (inactive); with TK-10 it was > 100 µM (inactive).

On to `C/C(=N\NC(=[Se])N1CCN(c2ccccn2)CC1)c1ccccn1`, for which the GI50 is 3.06 µM (inactive) in the assay on NCI-H23; 0.188 µM (active) in the assay with Hs-578T; 0.222 µM (active) in the assay on SN12C; 4.02 µM (inactive) in the assay on UO-31; 0.01 µM (active) in the assay on PC-3; 0.01 µM (active) with HCT-116. The GI50 with SF-539 was 2.51 µM (inactive); with MOLT-4, 2.58 µM (inactive); with OVCAR-5, 5.97 µM (inactive); in the assay on IGROV-1, 0.01 µM (active); with BT-549, 4.15 µM (inactive); in the assay on A549 it was 3.72 µM (inactive). For the same compound, the GI50 was 0.01 µM (active) in the assay on COLO 205; 0.0448 µM (active) in the assay with K562; 0.0023 µM (active) in the assay with NCI/ADR-RES; 0.297 µM (active) in the assay with Malme-3M; 2.37 µM (inactive) with ACHN; 7.38 µM (inactive) in the assay with TK-10.

For the compound `CN1C(=O)C(O)C[C@@H]1c1ccccc1` (some centres undefined), the GI50 in the assay on NCI-H23, in the assay on Hs-578T, with SN12C, in the assay with UO-31, in the assay with PC-3 and with HCT-116 was > 100 µM (inactive) in each case. For the same compound, the GI50 in the assay with SF-539, with MOLT-4, in the assay with CCRF-CEM, in the assay on OVCAR-5, in the assay with IGROV-1 and in the assay on BT-549 was > 100 µM (inactive) throughout. For the same compound, the GI50 in the assay on A549, with COLO 205, in the assay on NCI/ADR-RES, in the assay on Malme-3M, in the assay on ACHN and in the assay with TK-10 was > 100 µM (inactive) each time.

With `CCOC(=O)Nn1c(C)nnc1CC#N`, the GI50 in the assay on NCI-H23, in the assay on Hs-578T, with SN12C, in the assay on UO-31, with PC-3 and with HCT-116 was > 100 µM (inactive) each time. In addition, the GI50 with SF-539, in the assay on MOLT-4, in the assay on OVCAR-5, in the assay on IGROV-1, in the assay on BT-549 and in the assay with A549 was > 100 µM (inactive) each time. Moreover, the GI50 in the assay with K562, in the assay on NCI/ADR-RES, with Malme-3M, with ACHN and in the assay on TK-10 was > 100 µM (inactive) in each case.

`COc1cc2c(cc1C)NC(=O)/C2=C/c1cccnc1`: the GI50 with NCI-H23 is 9.86 µM (inactive); in the assay with Hs-578T, 27.4 µM (inactive); in the assay on PC-3 it was 17.9 µM (inactive); with HCT-116 it was 12.5 µM (inactive); in the assay on SF-539 it was 26.9 µM (inactive); with MOLT-4, 1.23 µM (inactive). Also, the GI50 was 7.01 µM (inactive) with CCRF-CEM; 13.6 µM (inactive) with OVCAR-5; 22.6 µM (inactive) in the assay with BT-549; 15.6 µM (inactive) with COLO 205; 5.31 µM (inactive) in the assay on K562; 12.1 µM (inactive) with NCI/ADR-RES. For the same compound, the GI50 is 16.4 µM (inactive) in the assay with Malme-3M, 11.9 µM (inactive) in the assay with ACHN and 11.9 µM (inactive) with TK-10.

`Cc1ccccc1OC(C)C(=O)NN1C(=O)CC(=O)NC1=S` (centres undefined): the GI50 in the assay on NCI-H23, in the assay with Hs-578T, with SN12C, in the assay with UO-31, in the assay with PC-3 and in the assay on HCT-116 was > 100 µM (inactive) throughout. Moreover, the GI50 in the assay with SF-539 is > 100 µM (inactive); in the assay with MOLT-4 it was 94.8 µM (inactive); in the assay with OVCAR-5 it was > 100 µM (inactive); in the assay with IGROV-1, > 100 µM (inactive); with BT-549 it was > 100 µM (inactive); in the assay with A549, 68.9 µM (inactive). The GI50 in the assay on COLO 205 was > 100 µM (inactive); in the assay on K562, > 100 µM (inactive); with NCI/ADR-RES it was > 100 µM (inactive); in the assay on Malme-3M, > 100 µM (inactive); with ACHN, 84.5 µM (inactive); in the assay on TK-10, > 100 µM (inactive).

For the compound `COc1cc(-c2ccccc2N)c2cccnc2c1OC`, the GI50 in the assay with NCI-H23 is 4.94 µM (inactive); in the assay on Hs-578T, 3.05 µM (inactive); in the assay with SN12C, 3.93 µM (inactive); in the assay on UO-31, 3.8 µM (inactive); in the assay on PC-3, 8.55 µM (inactive); with HCT-116, 1.36 µM (inactive). In addition, the GI50 in the assay with SF-539 is 6.41 µM (inactive); in the assay with MOLT-4, 1.44 µM (inactive); in the assay with CCRF-CEM, 3.56 µM (inactive); in the assay on IGROV-1, 2.97 µM (inactive); with BT-549 it was 9.14 µM (inactive); in the assay on A549, 3.69 µM (inactive). The GI50 is 6.38 µM (inactive) with COLO 205; 4.78 µM (inactive) in the assay on K562; 10.4 µM (inactive) in the assay on NCI/ADR-RES; 14.9 µM (inactive) in the assay on Malme-3M; 3.71 µM (inactive) with ACHN; 10.1 µM (inactive) in the assay on TK-10.

For the compound `Cc1cccc2[nH]c3c(c(O)cc4[nH]c5cccc(C)c5c(=O)c43)c(=O)c12`, the GI50 in the assay with NCI-H23 was 3 µM (inactive); in the assay with Hs-578T, 7.19 µM (inactive); with SN12C, 4.97 µM (inactive); in the assay with PC-3, 4.06 µM (inactive); in the assay on HCT-116, 3.65 µM (inactive); with SF-539, > 10 µM (inactive). The GI50 in the assay on MOLT-4 was 3.88 µM (inactive); in the assay on CCRF-CEM, > 10 µM (inactive); with OVCAR-5, > 10 µM (inactive); with IGROV-1 it was 5.74 µM (inactive); in the assay on BT-549, 3.63 µM (inactive); in the assay on A549, > 10 µM (inactive). For the same compound, the GI50 was 3.84 µM (inactive) in the assay on COLO 205; 4.02 µM (inactive) in the assay with K562; > 10 µM (inactive) in the assay on NCI/ADR-RES; 6.95 µM (inactive) in the assay on Malme-3M; 5.83 µM (inactive) with ACHN; 5.08 µM (inactive) in the assay on TK-10.

Take `[N-]=[N+]=Nc1cccc(-c2nnc(Cl)cc2O)c1`: the GI50 in the assay with NCI-H23 is > 100 µM (inactive); with Hs-578T, > 100 µM (inactive); in the assay with SN12C it was > 100 µM (inactive); in the assay with UO-31 it was > 10 µM (inactive); in the assay on PC-3, > 100 µM (inactive); in the assay with HCT-116, > 100 µM (inactive). In addition, the GI50 with SF-539, with MOLT-4, in the assay with CCRF-CEM, in the assay on IGROV-1, with BT-549 and in the assay on A549 was > 100 µM (inactive) each time. Moreover, the GI50 with COLO 205, in the assay on K562, in the assay with NCI/ADR-RES, with Malme-3M, in the assay with ACHN and with TK-10 was > 100 µM (inactive) in each case.

On to `Cc1cc(C)c(C[C@H]2COC(=O)[C@]2(O)Cc2c(C)cc(C)cc2C)c(C)c1`, for which the GI50 in the assay with NCI-H23 is 21 µM (inactive); in the assay on Hs-578T it was 17.7 µM (inactive); with SN12C it was 19.4 µM (inactive); in the assay with UO-31, 19.6 µM (inactive); in the assay on PC-3, 15.1 µM (inactive); with HCT-116, 20.7 µM (inactive). For the same compound, the GI50 in the assay on SF-539 was 23.9 µM (inactive); in the assay with MOLT-4 it was 26.7 µM (inactive); with CCRF-CEM, 31.7 µM (inactive); in the assay with OVCAR-5 it was 17.1 µM (inactive); in the assay with BT-549, 18.4 µM (inactive); in the assay with A549, 15.7 µM (inactive). The GI50 in the assay with COLO 205 was 18.7 µM (inactive); in the assay on K562 it was 25.2 µM (inactive); in the assay on NCI/ADR-RES, 15.6 µM (inactive); with Malme-3M, 13.9 µM (inactive); in the assay on ACHN, 18.2 µM (inactive); in the assay with TK-10, 21.6 µM (inactive).

`CNC(=O)CCC(NC(C)=O)C(=O)NC(Cc1ccc(NC(=O)CCCCC(C)=O)cc1)C(=O)NC(CCC(=O)NC)C(=O)NC` (centres undefined): the GI50 in the assay on NCI-H23 is > 100 µM (inactive); with Hs-578T, 40.2 µM (inactive); with SN12C it was > 100 µM (inactive); in the assay on UO-31 it was > 100 µM (inactive); in the assay with PC-3, > 100 µM (inactive); with HCT-116, > 100 µM (inactive). Also, the GI50 in the assay on SF-539, with MOLT-4, in the assay on OVCAR-5, in the assay on IGROV-1, in the assay on BT-549 and in the assay with A549 was > 100 µM (inactive) each time. The GI50 in the assay with COLO 205, with K562, in the assay with NCI/ADR-RES, with Malme-3M, in the assay on ACHN and in the assay on TK-10 was > 100 µM (inactive) each time.
